Test results taken from US11312724B2 (ASCENTAGE PHARMA (SUZHOU) CO., LTD., priority 2021, dated 2022).

Columns and labels:
MIA PaCa-2 cell = assay: Cell proliferation assay (Celltiter-Glo), MIA PaCa-2; format: cell-based; settings: Homo sapiens, MIA PaCa-2, 72 h, 3 days
Description: (§1) Cell Proliferation Assay:
(§2) NCI-H358 cell and MIA PaCa-2 cell was cultured in RPMI-1640 supplemented with 10% FBS in humidified incubator at 37° C., 5% CO2. To asses the effect of Compounds of the Disclosure on cell proliferation, exponentially growing cells (5000 cells/well) were plated onto 96-well plates. After cell seeding, a representative Compounds of the Disclosure were added to the cell media (in concentrations ranging from 0 to 10 μM, 3/dilution series). After 3 days, 30 μL Celltiter-Glo reagent was added, and the luminescent signal was determined according to supplier's instruction. The dose response curves and IC50 values were generated using Prism.

NCI-H358 cell = assay: Cell proliferation assay (Celltiter-Glo), NCI-H358; format: cell-based; settings: Homo sapiens, NCI-H358, 72 h, 3 days
Description: as §1, §2

[1] = Mouse PK studies, single i.v. and p.o. dose; format: in vivo, CD1 mice; settings: male, CD1, mouse, plasma; for half-life: terminal half-life

Structure (SMILES) | IC50 (MIA PaCa-2 cell) [nM] | IC50 (NCI-H358 cell) [nM] | also measured
C=C(COC)C(=O)N1CCN(c2nc(OC[C@@H]3CCCN3C)nc3c2CCC2(CCc4ccccc42)C3)C[C@@H]1CC#N (stereo partly drawn) [Cpd. No. 42, 2-((2S)-1-(2-(methoxymethyl)acryloyl)-4-(2′-(((S)-1-methylpyrrolidin-2-yl)methoxy)-2,3,5′,8′-tetrahydro-6′H-spiro[indene-1,7′-quinazolin]-4′-yl)piperazin-2-yl)acetonitrile] | 5800 | 10400 | 
CN1CCC[C@H]1COc1nc2c(c(N3CCN(C(=O)/C=C/CF)[C@@H](CC#N)C3)n1)CCC1(CCc3ccccc31)C2 (stereo partly drawn) [Cpd. No. 43, 2-((2S)-1-((E)-4-fluorobut-2-enoyl)-4-(2′-(((S)-1-methylpyrrolidin-2-yl)methoxy)-2,3,5′,8′-tetrahydro-6′H-spiro[indene-1,7′-quinazolin]-4′-yl)piperazin-2-yl)acetonitrile] | 130 | 120 | 
C=CC(=O)N1CCN(c2nc(OCC34CCCN3CCC4)nc3c2CC[C@@]2(CCc4c(Cl)cccc42)C3)C[C@@H]1CC#N [Cpd. No. 44, 2-((S)-1-acryloyl-4-((R)-4-chloro-2′-((tetrahydro-1H-pyrrolizin-7a(5H)-yl)methoxy)-2,3,5′,8′-tetrahydro-6′H-spiro[indene-1,7′-quinazolin]-4′-yl)piperazin-2-yl)acetonitrile] | 1.5 | 4.6 | 
C=C(F)C(=O)N1CCN(c2nc(OCC34CCCN3CCC4)nc3c2CC[C@@]2(CCc4c(Cl)cccc42)C3)C[C@@H]1CC#N [Cpd. No. 45, 2-((S)-4-((R)-4-chloro-2′-((tetrahydro-1H-pyrrolizin-7a(5H)-yl)methoxy)-2,3,5′,8′-tetrahydro-6′H-spiro[indene-1,7′-quinazolin]-4′-yl)-1-(2-fluoroacryloyl)piperazin-2-yl)acetonitrile] | 2.8 | 7.6 | 
C=CC(=O)N1CCN(c2nc(OCC3CCC4(CC4)N3C)nc3c2CC[C@@]2(CCc4c(Cl)cccc42)C3)C[C@@H]1CC#N (stereo partly drawn) [Cpd. No. 46, 2-((2S)-1-acryloyl-4-((1R)-4-chloro-2′-((4-methyl-4-azaspiro[2.4]heptan-5-yl)methoxy)-2,3,5′,8′-tetrahydro-6′H-spiro[indene-1,7′-quinazolin]-4′-yl)piperazin-2-yl)acetonitrile] | 15 | 25 | 
C=C(F)C(=O)N1CCN(c2nc(OCC34CCCN3CCC4)nc3c2CCC2(CCc4c(C(F)F)cccc42)C3)C[C@@H]1CC#N (stereo partly drawn) [Cpd. No. 49, 2-((2S)-4-(4-(difluoromethyl)-2′-((tetrahydro-1H-pyrrolizin-7a(5H)-yl)methoxy)-2,3,5′,8′-tetrahydro-6′H-spiro[indene-1,7′-quinazolin]-4′-yl)-1-(2-fluoroacryloyl)piperazin-2-yl)acetonitrile] | 60 | 61 | 
C=C(F)C(=O)N1CCN(c2nc(OC[C@@]34CCCN3C[C@H](F)C4)nc3c2CC[C@@]2(CCc4c(Cl)cccc42)C3)C[C@@H]1CC#N [Cpd. No. 50, 2-((S)-4-((R)-4-chloro-2′-(((2R,7aS)-2-fluorotetrahydro-1H-pyrrolizin-7a(5H)-yl)methoxy)-2,3,5′,8′-tetrahydro-6′H-spiro[indene-1,7′-quinazolin]-4′-yl)-1-(2-fluoroacryloyl)piperazin-2-yl)acetonitrile] | 2.9 | 1.2 | 
C=C(F)C(=O)N1CCN(c2nc(OCC34CCCN3CC(F)(F)C4)nc3c2CC[C@@]2(CCc4c(Cl)cccc42)C3)C[C@@H]1CC#N (stereo partly drawn) [Cpd. No. 51, 2-((2S)-4-((1R)-4-chloro-2′-((2,2-difluorotetrahydro-1H-pyrrolizin-7a(5H)-yl)methoxy)-2,3,5′,8′-tetrahydro-6′H-spiro[indene-1,7′-quinazolin]-4′-yl)-1-(2-fluoroacryloyl)piperazin-2-yl)acetonitrile] | 110 | 52 | 
C=C(F)C(=O)N1CCN(c2nc(OCC3CCC4CCCN43)nc3c2CC[C@@]2(CCc4c(Cl)cccc42)C3)C[C@@H]1CC#N (stereo partly drawn) [Cpd. No. 52, 2-((2S)-4-((1R)-4-chloro-2′-((hexahydro-1H-pyrrolizin-3-yl)methoxy)-2,3,5′,8′-tetrahydro-6′H-spiro[indene-1,7′-quinazolin]-4′-yl)-1-(2-fluoroacryloyl)piperazin-2-yl)acetonitrile] | 340 | 260 | 
C=CC(=O)N1CCN(c2nc(OC[C@@H]3CCCN3C)nc3c2CC[C@@]2(CCc4c(Cl)cccc42)C3)C[C@@H]1CC#N [Cpd. No. 53, 2-((S)-1-acryloyl-4-((R)-4-chloro-2′-(((S)-1-methylpyrrolidin-2-yl)methoxy)-2,3,5′,8′-tetrahydro-6′H-spiro[indene-1,7′-quinazolin]-4′-yl)piperazin-2-yl)acetonitrile] | 1.1 | 2.5 | AUC(0-inf) ([1]; 2 mg/kg, IV 2 mpk): 1200 ng·h/mL; AUC(0-t) ([1]; 2 mg/kg, IV 2 mpk): 1200 ng·h/mL; MRT inf ([1]; 2 mg/kg, IV 2 mpk): 0.824 h; half-life ([1]; 2 mg/kg, IV 2 mpk): 1.45 h; Vd ([1]; 2 mg/kg, IV 2 mpk, read-out: Vss): 1.37 L/kg; AUC(0-inf) ([1]; 10 mg/kg, PO 10 mpk): 2900 ng·h/mL; AUC(0-t) ([1]; 10 mg/kg, PO 10 mpk): 2650 ng·h/mL; Cmax ([1]; 10 mg/kg, PO 10 mpk): 856 ng/mL; MRT inf ([1]; 10 mg/kg, PO 10 mpk): 3.26 h; half-life ([1]; 10 mg/kg, PO 10 mpk): 2.39 h; bioavailability ([1]; 10 mg/kg, PO 10 mpk vs IV 2 mpk): 48.2%
C=C(F)C(=O)N1CCN(c2nc(OC[C@@H]3CCCN3C)nc3c2CC[C@@]2(CCc4c(Cl)cccc42)C3)C[C@@H]1CC#N [Cpd. No. 54, 2-((S)-4-((R)-4-chloro-2′-(((S)-1-methylpyrrolidin-2-yl)methoxy)-2,3,5′,8′-tetrahydro-6′H-spiro[indene-1,7′-quinazolin]-4′-yl)-1-(2-fluoroacryloyl)piperazin-2-yl)acetonitrile] | 16 | 28 | 
C=CC(=O)N1CCN(c2nc(OC[C@@H]3CCCN3C)nc3c2CCC2(COCc4c(F)cccc42)C3)C[C@@H]1CC#N (some centres unmarked) [compound 26] | 1.8 | 2.2 | 
